Laboratory results: patent US8318757B2, “Substituted isoxazoline compound and pest control agent” (Nissan Chemical Industries, Ltd., priority 2007, dated 2012)
Where two headings read alike, the source gives them in different places.

How the values were obtained:
Type in all cases: in vivo
Plutella xylostella = assay: whole plant or invertebrate; details: 144 h
Description: (§1) A 10% emulsifiable concentrate of the compound of the present invention (depending on the type of the compound, a 10% wettable powder was subjected to the test) was diluted with water containing a spreader to prepare a drug solution in a concentration of 10 ppm. In this drug solution, a leaf of cabbage was immersed for about 10 seconds and was air-dried and then put into a petri dish. In the petri dish, five 2 instar larvae of Plutella xylostella per petri dish were released and the petri dish was capped and stored in a thermostatic room of 25° C. The number of killed larvae after 6 days was measured and the mortality was calculated from the following calculation formula: Mortality (%)=(number of killed insect/number of released insect)×100. Here, the test was carried out on the duplicate samples.

Spodoptera litura = assay: whole plant or invertebrate; details: 144 h
Description: as §1, with “Spodoptera litura” for “Plutella xylostella”, “same” for “following”, “formula as that in Test Example 1.” for “formula: Mortality (%)=(number of killed insect/number of released insect)×100.”

Spodoptera exigua = assay: Mortality Test for Spodoptera exigua; details: 144 h
Description: as §1, with “of 100” for “of 10”, “of Spodoptera exigua” for “of Plutella xylostella”, “the same” for “the following”, “calculation formula as that in Test Example 1.” for “calculation formula: Mortality (%)=(number of killed insect/number of released insect)×100.”

Aculops pelekassi = assay: whole plant or invertebrate; details: 144 h
Description: (§2) In a styrol cup having an inner diameter of 7 cm, a wet filtration paper was laid and on the paper, a leaf of mandarin orange cut out so as to have the same diameter as the inner diameter of the cup was laid, followed by inoculating ten larvae of Aculops pelekassi per leaf with the leaf. A 10% emulsifiable concentrate of the compound of the present invention (depending on the type of the compound, a 10% wettable powder was subjected to the test) was diluted with water containing a spreader to prepare a drug solution in a concentration of 100 ppm. The drug solution was sprayed using a rotary spray tower in an amount of 2.5 mL per styrol cup, and the cup was capped and stored in a thermostatic room of 25° C. The number of killed larvae after 6 days was measured and the mortality was calculated from the same calculation formula as that in Test Example 1. Here, the test was carried out on the duplicate samples.

Homona magnanima = assay: Mortality Test for Homona magnanima; details: in Brassica oleracea, 144 h
Description: as §1, with “of 100” for “of 10”, “of Homona magnanima” for “of Plutella xylostella”, “the same” for “the following”, “calculation formula as that in Test Example 1.” for “calculation formula: Mortality (%)=(number of killed insect/number of released insect)×100.”

Nilaparvata lugens = assay: whole plant or invertebrate; details: 144 h
Description: A 10% emulsifiable concentrate of the compound of the present invention (depending on the type of the compound, a 10% wettable powder was subjected to the test) was diluted with water containing a spreader to prepare a drug solution in a concentration of 500 ppm. In this drug solution, a leaf sheath of rice was immersed for about 10 seconds and was air-dried and then put into a test tube. In the test tube, five 2 instar larvae of Nilaparvata lugens per test tube were released and the test tube was capped with a sponge and stored in a thermostatic room of 25° C. The number of killed larvae after 6 days was measured and the mortality was calculated from the same calculation formula as that in Test Example 1. Here, the test was carried out on the duplicate samples.

Bemisia argentifolii = assay: whole plant or invertebrate; details: 144 h
Description: In a styrol cup having an inner diameter of 7 cm, a wet filtration paper was laid and on the paper, a cut-out leaf of tomato on which Bemisia argentifolii laid eggs (10 eggs/leaf) was laid. A 10% emulsifiable concentrate of the compound of the present invention (depending on the type of the compound, a 10% wettable powder was subjected to the test) was diluted with water containing a spreader to prepare a drug solution in a concentration of 500 ppm. The drug solution was sprayed using a rotary spray tower in an amount of 2.5 mL per styrol cup, and the cup was capped and stored in a thermostatic room of 25° C. The number of killed larvae after 6 days was measured and the mortality was calculated from the same calculation formula as that in Test Example 1. Here, the test was carried out on the duplicate samples.

Myzus persicae = assay: whole plant or invertebrate; details: 144 h
Description: In a glass petri dish having an inner diameter of 3 cm, a wet absorbent cotton was laid and on the cotton, a leaf of cabbage cut out so as to have the same diameter as the inner diameter of the petri dish was laid, followed by releasing four apterous imagines of Myzus persicae on the leaf. After one day, a 10% emulsifiable concentrate of the compound of the present invention (depending on the type of the compound, a 10% wettable powder was subjected to the test) was diluted with water containing a spreader to prepare a drug solution in a concentration of 500 ppm. The drug solution was sprayed using a rotary spray tower (2.5 mg/cm^2), and the petri dish was capped and stored in a thermostatic room of 25° C. The number of killed imagines after 6 days was measured and the mortality was calculated from the same calculation formula as that in Test Example 1. Here, the test was carried out on the duplicate samples.

Liriomyza trifolii = assay: whole plant or invertebrate; details: 144 h
Description: A 10% emulsifiable concentrate of the compound of the present invention (depending on the type of the compound, a 10% wettable powder was subjected to the test) was diluted with water containing a spreader to prepare a drug solution in a concentration of 500 ppm. In this drug solution, a leaf of kidney bean which was cut out to a diameter of 7 cm, on which Liriomyza trifolii laid eggs (10 eggs/leaf) was immersed for about 10 seconds and was air-dried and then laid on a wet filtration paper laid in a styrol cup having an inner diameter of 7 cm. The styrol cup was capped and stored in a thermostatic room of 25° C. The number of killed larvae after 6 days was measured and the mortality was calculated from the same calculation formula as that in Test Example 1. Here, the test was carried out on the duplicate samples.

[1] = system: Frankliniella occidentalis; assay: whole plant or invertebrate; details: in Phaseolus vulgaris, 48 h
Description: as §2, with “kidney bean” for “mandarin orange”, “ten 1 instar” for “ten”, “Frankliniella occidentalis” for “Aculops pelekassi”, “500” for “100”, “2” for “6”

Tetranychus urticae = assay: whole plant or invertebrate; details: in Phaseolus vulgaris, 144 h
Description: as §2, with “kidney bean” for “mandarin orange”, “Tetranychus urticae” for “Aculops pelekassi”, “500” for “100”

[2] = drug solution 100 ppm (mark *), cabbage leaf immersed, 2 instar larvae, after 6 days, read-out: mortality

CS(CC(=O)NCc1ccc(C2=NOC(c3cc(Cl)c(Cl)c(C(F)(F)F)c3)(C(F)(F)F)C2)cc1Br)=NC(=O)C(F)(F)F (centres unmarked) [1-102, N-[2-bromo-4-[5-[3,4-dichloro-5-(trifluoromethyl)phenyl]-5-trifluoromethyl-4,5-dihydroisoxazole-3-yl]phenyl]methyl-2-[N-(trifluoroacetyl)methylsulfinimidoyl]acetamide]
≥ 80%: mortality at 10 ppm (Plutella xylostella; in Brassica oleracea) | mortality at 10 ppm (Spodoptera litura; in Brassica oleracea) | mortality at 100 ppm (Spodoptera exigua; in Brassica oleracea) | mortality at 100 ppm (Aculops pelekassi)

CS(=O)(=O)CC(=O)NCc1ccc(C2=NOC(c3cc(Br)cc(C(F)(F)F)c3)(C(F)(F)F)C2)cc1Cl (centres unmarked) [1-113, N-[4-[5-[3-bromo-5-(trifluoromethyl)phenyl]-5-trifluoromethyl-4,5-dihydroisoxazole-3-yl]-2-chlorophenyl]methyl-2-(methylsulfonyl)acetamide]
≥ 80%: mortality at 100 ppm (Plutella xylostella; [2]) | mortality at 100 ppm (Spodoptera litura; [2]) | mortality at 100 ppm (Spodoptera exigua; drug solution 100 ppm, cabbage leaf immersed, 2 instar larvae, after 6 days, read-out: mortality) | mortality at 100 ppm (Homona magnanima) | mortality at 500 ppm (Nilaparvata lugens; drug solution 500 ppm, rice leaf sheath immersed, 2 instar larvae, after 6 days, read-out: mortality) | mortality at 500 ppm (Bemisia argentifolii; drug solution 500 ppm sprayed, tomato leaf with eggs, after 6 days, read-out: mortality) | mortality at 500 ppm (Myzus persicae; drug solution 500 ppm sprayed, cabbage leaf, apterous imagines, after 6 days, read-out: mortality) | mortality at 500 ppm (Liriomyza trifolii; drug solution 500 ppm, kidney bean leaf with eggs immersed, after 6 days, read-out: mortality) | mortality at 100 ppm (Aculops pelekassi; drug solution 100 ppm sprayed, mandarin orange leaf, larvae, after 6 days, read-out: mortality)

CCSCC(=O)N(C)Cc1ccc(C2=NOC(c3cc(Cl)c(Cl)c(Cl)c3)(C(F)(F)F)C2)cc1Cl (centres unmarked) [2-002, N-[2-chloro-4-[5-(3,4,5-trichlorophenyl)-5-trifluoromethyl-4,5-dihydroisoxazole-3-yl]phenyl]methyl-2-ethylthio-N-methylacetamide]
≥ 80%: mortality at 100 ppm (Homona magnanima) | mortality at 500 ppm [1] | mortality at 500 ppm (Nilaparvata lugens; in Oryza sativa) | mortality at 500 ppm (Bemisia argentifolii; in Solanum lycopersicum) | mortality at 500 ppm (Myzus persicae; in Brassica oleracea) | mortality at 500 ppm (Tetranychus urticae)

CCS(=O)(=O)CC(=O)N(C)Cc1ccc(C2=NOC(c3cc(Cl)c(Cl)c(Cl)c3)(C(F)(F)F)C2)cc1Cl (centres unmarked) [2-005, N-[2-chloro-4-[5-(3,4,5-trichlorophenyl)-5-trifluoromethyl-4,5-dihydroisoxazole-3-yl]phenyl]methyl-2-ethylsulfonyl-N-methylacetamide]
≥ 80%: mortality at 100 ppm (Homona magnanima) | mortality at 500 ppm [1] | mortality at 500 ppm (Nilaparvata lugens; in Oryza sativa) | mortality at 500 ppm (Bemisia argentifolii; in Solanum lycopersicum) | mortality at 500 ppm (Myzus persicae; in Brassica oleracea) | mortality at 500 ppm (Liriomyza trifolii; in Phaseolus vulgaris) | mortality at 500 ppm (Tetranychus urticae)
